# Laboratory results published in PubChem BioAssay (NCI).
#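 Each compound was tested at five concentrations against cells in 96-well plates for 48 hours. GI50 is the concentration that inhibits growth by half. At the TGI there is no net growth.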
# Columns and labels:
# Assay in all cases: NCI-60 cell line screen, 48 h
# [1] = tested on: U251 CNS
# [2] = tested on: SNB-19 CNS
# [3] = tested on: OVCAR-5 ovarian
# [4] = tested on: A549 NSCLC
# [5] = tested on: NCI-H522 lung
# [6] = tested on: M14 melanoma
# [7] = tested on: NCI-H226 lung
# [8] = tested on: LOX IMVI melanoma
# [9] = tested on: SK-MEL-5 melanoma
# [10] = tested on: MDA-MB-435
SMILES,TGI [1],TGI [2],TGI [3],TGI [4],TGI [5],TGI [6],TGI [7],TGI [8],TGI [9],TGI [10],GI50 [1]
Nc1c(F)c(F)c2c(c1F)N(CCCCCl)c1ccccc1S2,> 100 µM,> 100 µM,> 100 µM,> 100 µM,> 100 µM,> 100 µM,> 100 µM,> 100 µM,> 100 µM,,
O=C1CSC(c2ccccc2)N1c1ccc(-c2ccc(-n3c(-c4ccccc4)nc4ccccc4c3=O)cc2)cc1 (configuration not stated),> 100 µM,> 100 µM,> 100 µM,> 100 µM,> 100 µM,> 100 µM,,> 100 µM,> 100 µM,> 100 µM,
CC(=O)N1C(c2[nH]c3ccccc3c2Cc2ccccc2)CCN1c1ccccc1 (configuration not stated),,> 10 µM,> 10 µM,> 10 µM,> 10 µM,> 10 µM,> 10 µM,> 10 µM,> 10 µM,> 10 µM,
O=c1cccccc1[O-].O=c1cccccc1[O-].O=c1cccccc1[O-].[Nd+3],> 100 µM,> 100 µM,> 100 µM,> 100 µM,74.4 µM,87 µM,> 100 µM,> 100 µM,> 100 µM,,38.7 µM
COc1ccc(/C=C2/SC(=Nc3ccccc3)N(NC(=O)Cc3ccccc3)C2=O)cc1,> 100 µM,> 100 µM,> 100 µM,> 100 µM,,> 100 µM,> 100 µM,,> 100 µM,> 100 µM,
CC(CC(=O)N1C2CC3CCC2(CS1(=O)=O)C3(C)C)[Si](C)(C)C (configuration not stated),> 100 µM,> 100 µM,,> 100 µM,> 100 µM,> 100 µM,> 100 µM,> 100 µM,> 100 µM,> 100 µM,
CC(=O)Oc1ccc2c(c1)[nH]c1c3ccc(OC(C)=O)cc3oc(=O)c21,> 100 µM,> 100 µM,> 100 µM,> 100 µM,> 100 µM,> 100 µM,76.5 µM,,68.9 µM,> 100 µM,
CN1CCCS/C1=C1/SC(=S)N(c2ccccc2)C1=O,> 100 µM,> 100 µM,> 100 µM,> 100 µM,> 100 µM,> 100 µM,> 100 µM,> 100 µM,> 100 µM,,
N#CCCC(C#N)(C#N)CCC#N,> 100 µM,> 100 µM,,> 100 µM,> 100 µM,> 100 µM,> 100 µM,> 100 µM,> 100 µM,,
COc1ccc2nc3c4c(nccc4c2c1)-c1ncccc1C3=O,1.75 µM,0.279 µM,2.1 µM,0.338 µM,,0.29 µM,0.445 µM,0.0977 µM,0.111 µM,0.148 µM,
O=C(Nc1ccccc1)OCCN=c1c2ccccc2ccc2ccccc12,69.9 µM,62.7 µM,> 100 µM,> 100 µM,,40.8 µM,57.1 µM,44.5 µM,31.2 µM,79.6 µM,
CN1CCS(=O)(=O)NC(Cc2ccccc2)C(=O)N2CCCC2C1=O (configuration not stated),> 100 µM,> 100 µM,> 100 µM,> 100 µM,> 100 µM,,> 100 µM,> 100 µM,> 100 µM,,
N#Cc1c(C#N)c(SSc2c(C#N)c(C#N)c(N)n2-c2cccc3ccccc23)n(-c2cccc3ccccc23)c1N,40 µM,46.4 µM,49.9 µM,43.7 µM,3.15 µM,8.4 µM,56.3 µM,,41.8 µM,36.5 µM,
C/C=C1\Oc2ccc(OC)cc2S1(=O)=O,> 100 µM,> 100 µM,> 100 µM,> 100 µM,> 100 µM,> 100 µM,> 100 µM,> 100 µM,> 100 µM,,
COP12(OC)NC(=O)OC1(C(F)(F)F)c1ccccc1O2 (configuration not stated),,> 100 µM,,> 100 µM,> 100 µM,> 100 µM,> 100 µM,> 100 µM,> 100 µM,,
CCOC(=O)c1ccc(N=C2Sc3nc4ccccc4n3C2=Nc2ccc(C(=O)OCC)cc2)cc1,,25.2 µM,> 100 µM,69.8 µM,> 100 µM,37.1 µM,73.8 µM,81.8 µM,63.2 µM,> 100 µM,
O=C1CCC(=O)c2ccccc2N1,> 100 µM,> 100 µM,> 100 µM,> 100 µM,> 100 µM,> 100 µM,> 100 µM,> 100 µM,> 100 µM,,
COc1nc(=O)[nH]c2c1C(c1ccc([N+](=O)[O-])cc1)c1c(OC)nc(=O)[nH]c1O2,> 100 µM,> 100 µM,> 100 µM,> 100 µM,> 100 µM,> 100 µM,> 100 µM,,> 100 µM,> 100 µM,
CN1C(=O)C(=Cc2ccc(Br)cc2)C(=O)N(C)C1=O,> 100 µM,> 100 µM,> 100 µM,> 100 µM,,> 100 µM,> 100 µM,> 100 µM,> 100 µM,> 100 µM,
COc1ccc(OC(=O)N2C/C(=C\c3ccccc3)C(=O)/C(=C/c3ccccc3)C2)cc1,8.87 µM,16.6 µM,27.1 µM,38.9 µM,5.23 µM,7.97 µM,30.3 µM,3.22 µM,8.84 µM,,
COc1ccc(S(=O)(=O)N/N=C(\C)CN2C(=O)c3ccccc3C2=O)cc1OC,> 100 µM,> 100 µM,> 100 µM,> 100 µM,> 100 µM,> 100 µM,> 100 µM,,> 100 µM,,
c1cc2c(cc1C1OCC3C(c4ccc5c(c4)OCO5)OCC13)OCO2 (configuration not stated),> 100 µM,> 100 µM,> 100 µM,> 100 µM,> 100 µM,> 100 µM,> 100 µM,> 100 µM,83.7 µM,,
CCOC(=O)/C=C(/C(=O)OCC)n1ccc(=O)n(Cc2cn(CCCCOC(C)=O)nn2)c1=O,> 100 µM,> 100 µM,> 100 µM,> 100 µM,29.3 µM,,> 100 µM,> 100 µM,> 100 µM,> 100 µM,
